Laboratory results published in publication PMC6576746, “Rational discovery of dual-indication multi-target PDE/Kinase inhibitor for precision anti-cancer therapy using structural systems pharmacology” (PLoS Computational Biology, 2019).

Legend:
Test in all cases: cells
Parameters in all cases: species or system panel of human cancer cell lines; Eurofins OncoPanel proliferation; nuclei count by high-content fluorescence imaging, 10-point dose response
SJRH30 = details: Homo sapiens, SJRH30, 72 h, cell count, 3 days
How it was run: (§1)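 Cells in RPMI 1640/10% FBS or special medium received compound the day after seeding, with a time-zero plate; 3-day incubation at 37°C, 5% CO2. Nuclei imaged by fluorescence microscopy; 10 half-log doses from 100 μM, 0.1% DMSO. EC50, IC50, GI50 and activity area (0–10) from curve fits.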

D341 Med = details: D341 Med, 72 h, cell count, 3 days
How it was run: as §1

EB-3 = details: Homo sapiens, EB-3, 72 h, cell count, 3 days
How it was run: as §1

FaDu = details: Homo sapiens, FaDu, 72 h, cell count, 3 days
How it was run: as §1

SK-LMS-1 = details: Homo sapiens, SK-LMS-1, 72 h, cell count, 3 days
How it was run: as §1

NCI-H596 = details: Homo sapiens, NCI-H596, 72 h, cell count, 3 days
How it was run: as §1

MOLT-3 = details: Homo sapiens, MOLT-3, 72 h, cell count, 3 days
How it was run: as §1

SNU-423 = details: Homo sapiens, SNU-423, 72 h, cell count, 3 days
How it was run: as §1

PSN-1 = details: Homo sapiens, PSN1, 72 h, cell count, 3 days
How it was run: as §1

Cal 27 = details: Homo sapiens, CAL-27, 72 h, cell count, 3 days
How it was run: as §1

Hs 688(A).T = details: 72 h, cell count, 3 days
How it was run: as §1

JeKo-1 = details: Homo sapiens, JeKo-1, 72 h, cell count, 3 days
How it was run: as §1

J82 = details: Homo sapiens, J82, 72 h, cell count, 3 days
How it was run: as §1

NAMALWA = details: 72 h, cell count, 3 days
How it was run: as §1

[1] = 50% of maximum possible response

Q: Which IC50 (SJRH30; [1]) does the source give for C[C@@H]1CC(=O)NN=C1c1ccc(NN=C(C#N)C#N)cc1 [levosimendan] here?
A: 11.4 µM

Q: What about the GI50 (SJRH30; corrected for time zero) of the same compound?
A: 7.7 µM

Q: What about the EC50 (SJRH30; curve inflection point) of the same compound?
A: 9.67 µM

Q: What about the IC50 (D341 Med; [1]) of the same compound?
A: 73.8 µM

Q: What about the GI50 (D341 Med; corrected for time zero) of the same compound?
A: 39.6 µM

Q: What about the EC50 (D341 Med; curve inflection point) of the same compound?
A: 73.8 µM

Q: What about the IC50 (EB-3; [1]) of the same compound?
A: 30 µM

Q: What about the GI50 (EB-3; corrected for time zero) of the same compound?
A: 23.6 µM

Q: What about the EC50 (EB-3; curve inflection point) of the same compound?
A: 30 µM

Q: And the IC50 (FaDu; [1])?
A: 63.1 µM

Q: What about the GI50 (FaDu; corrected for time zero) of the same compound?
A: 56.4 µM

Q: And the EC50 (FaDu; curve inflection point)?
A: 63.1 µM

Q: And the IC50 (SK-LMS-1; [1])?
A: 27.1 µM

Q: What about the GI50 (SK-LMS-1; corrected for time zero) of the same compound?
A: 21.5 µM

Q: What about the EC50 (SK-LMS-1; curve inflection point) of the same compound?
A: 27.1 µM

Q: And the IC50 (NCI-H596; [1])?
A: > 100 µM

Q: And the GI50 (NCI-H596; corrected for time zero)?
A: > 100 µM

Q: And the EC50 (NCI-H596; curve inflection point)?
A: 55.5 µM

Q: What about the IC50 (MOLT-3; [1]) of the same compound?
A: 32.4 µM

Q: And the GI50 (MOLT-3; corrected for time zero)?
A: 19.9 µM

Q: And the EC50 (MOLT-3; curve inflection point)?
A: 30.5 µM

Q: What about the IC50 (SNU-423; [1]) of the same compound?
A: 19.2 µM

Q: And the GI50 (SNU-423; corrected for time zero)?
A: 16.5 µM

Q: What about the EC50 (SNU-423; curve inflection point) of the same compound?
A: 14.8 µM

Q: And the IC50 (PSN-1; [1])?
A: 12.8 µM

Q: And the GI50 (PSN-1; corrected for time zero)?
A: 11.6 µM

Q: And the EC50 (PSN-1; curve inflection point)?
A: 11.8 µM

Q: And the IC50 (Cal 27; [1])?
A: 14.9 µM

Q: And the GI50 (Cal 27; corrected for time zero)?
A: 13.2 µM

Q: And the EC50 (Cal 27; curve inflection point)?
A: 14.5 µM

Q: And the IC50 (Hs 688(A).T; [1])?
A: > 100 µM

Q: What about the GI50 (Hs 688(A).T; corrected for time zero) of the same compound?
A: 10.5 µM

Q: What about the EC50 (Hs 688(A).T; curve inflection point) of the same compound?
A: 16 µM

Q: And the IC50 (JeKo-1; [1])?
A: 24.7 µM

Q: And the GI50 (JeKo-1; corrected for time zero)?
A: 20.9 µM

Q: What about the EC50 (JeKo-1; curve inflection point) of the same compound?
A: 24.6 µM

Q: And the IC50 (J82; [1])?
A: > 100 µM

Q: What about the GI50 (J82; corrected for time zero) of the same compound?
A: > 100 µM

Q: And the EC50 (J82; curve inflection point)?
A: > 100 µM

Q: And the IC50 (NAMALWA; [1])?
A: 12.5 µM

Q: And the GI50 (NAMALWA; corrected for time zero)?
A: 11.3 µM

Q: What about the EC50 (NAMALWA; curve inflection point) of the same compound?
A: 12.5 µM
